Read-outs that look alike come from different tables or passages of the source.
Key:
XIAP BIR2-3 = target: T1, XIAP BIR2-3 (Homo sapiens, UniProt P98170, C202A/C213G); assay: XIAP-BIR2-3 dimeric SMAC Peptide Homogeneous Time Resolved Fluorescence (HTRF) Assay; format: binding
T1 construct: His-BIR2-3 (125-356, C202A/C213G, XIAP)
Procedure: B. […] Assays were performed in black, flat-bottom, 384-well plates. […] Compounds were dissolved at 3 mM in dimethylsulfoxide (DMSO) and evaluated at eleven serially diluted concentrations. IC50 and Ki values were derived by non-linear regression analysis.

XIAP BIR3 = target: T2, XIAP BIR3 (Homo sapiens, UniProt P98170); assay: XIAP-BIR3/SMAC Homogeneous Time Resolved Fluorescence (HTRF) Assay; format: binding
T2 construct: His-BIR3 (241-356, XIAP)
In short: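 Competition HTRF between XIAP-BIR3 and SMAC; reaction 60 min at room temperature, then anti-6×His-terbium Fab detection for a further 30 min.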

[1] = 0.5 nM N-His-BIR2-3 (125-356, C202A/C213G, XIAP), 20 nM fluorescein labeled dimeric SMAC peptide, HTRF signal, read-out: XIAP BIR2-3 IC50
[2] = 1 nM N-His-BIR3 (241-356, XIAP), 5 nM fluorescein labeled SMAC peptide, HTRF signal, read-out: XIAP BIR3 IC50

T1 sequence (P98170 125-356 C202A/C213G): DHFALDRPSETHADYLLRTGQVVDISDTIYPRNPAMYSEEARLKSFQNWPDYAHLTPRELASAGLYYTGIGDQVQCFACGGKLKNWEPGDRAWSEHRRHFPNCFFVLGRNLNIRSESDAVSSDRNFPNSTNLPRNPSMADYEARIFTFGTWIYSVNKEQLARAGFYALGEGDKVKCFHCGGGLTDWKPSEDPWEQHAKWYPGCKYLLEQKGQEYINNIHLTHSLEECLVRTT
T2 sequence (P98170 241-356): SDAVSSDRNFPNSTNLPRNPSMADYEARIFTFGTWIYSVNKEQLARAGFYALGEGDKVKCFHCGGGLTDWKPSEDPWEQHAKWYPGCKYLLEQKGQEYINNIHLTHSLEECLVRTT

Row | Compound | IC50 (XIAP BIR2-3; [1]) [nM] | IC50 (XIAP BIR3; [2]) [nM] | IC50 (XIAP BIR2-3) [nM] | IC50 (XIAP BIR3) [nM]
1 | CN[C@@H](C)C(=O)N[C@H](C(=O)N1Cc2cc([C@H]3C[C@@H](C(=O)N[C@@H](Cc4ccccc4)C(=O)OC)N(C(=O)[C@@H](NC(=O)[C@H](C)NC)C(C)(C)C)C3)ccc2C[C@H]1C(=O)N[C@@H](Cc1ccccc1)C(=O)OC)C(C)(C)C [Example 85, (S)-Methyl 2-((2S,4R)-1-((S)-3,3-dimethyl-2-((S)-2-(methylamino)propanamido)butanoyl)-4-((S)-2-((S)-3,3-dimethyl-2-((S)-2-(methylamino)propanamido)butanoyl)-3-(((S)-1-methoxy-1-oxo-3-phenylpropan-2-yl)carbamoyl)-1,2,3,4-tetrahydroisoquinolin-7-yl)pyrrolidine-2-carboxamido)-3-phenylpropanoate] | – | – | 6.2 | 14.8
2 | CN[C@@H](C)C(=O)N[C@H](C(=O)N1C[C@@H](c2ccc3c(c2)CN(C(=O)[C@@H](NC(=O)[C@H](C)NC)C(C)(C)C)[C@H](C(=O)N[C@@H]2CCCc4ccccc42)C3)C[C@H]1C(=O)N[C@@H](Cc1ccccc1)C(=O)Nc1cccc(C#N)c1)C(C)(C)C [Example 59, (S)-7-((3R,5S)-5-(((S)-1-((3-Cyanophenyl)amino)-1-oxo-3-phenylpropan-2-yl)carbamoyl)-1-((S)-3,3-dimethyl-2-((S)-2-(methylamino)propanamido)butanoyl)pyrrolidin-3-yl)-2-((S)-3,3-dimethyl-2-((S)-2-(methylamino)propanamido)butanoyl)-N-((R)-1,2,3,4-tetrahydronaphthalen-1-yl)-1,2,3,4-tetrahydroisoquinoline-3-carboxamide] | 2.2 | 6.7 | – | –
3 | CN[C@@H](C)C(=O)N[C@H](C(=O)N1C[C@@H](c2ccc3c(c2)CN(C(=O)[C@@H](NC(=O)[C@H](C)NC)C(C)(C)C)[C@H](C(=O)N[C@@H]2CCCc4ccccc42)C3)C[C@H]1C(=O)N[C@@H](Cc1ccccc1)C(=O)N(C)CCc1ccccn1)C(C)(C)C [Example 54, (S)-2-((S)-3,3-Dimethyl-2-((S)-2-(methylamino)propanamido)butanoyl)-7-((3R,5S)-1-((S)-3,3-dimethyl-2-((S)-2-(methylamino)propanamido)butanoyl)-5-(((S)-1-(methyl(2-(pyridin-2-yl)ethyl)amino)-1-oxo-3-phenylpropan-2-yl)carbamoyl)pyrrolidin-3-yl)-N-((R)-1,2,3,4-tetrahydronaphthalen-1-yl)-1,2,3,4-tetrahydroisoquinoline-3-carboxamide] | 2.9 | 6.8 | – | –
4 | CCNC(=O)[C@H](Cc1ccccc1)NC(=O)[C@@H]1C[C@H](c2ccc3c(c2)CN(C(=O)[C@@H](NC(=O)[C@H](C)NC)C(C)(C)C)[C@H](C(=O)N[C@@H]2CCCc4ccccc42)C3)CN1C(=O)[C@@H](NC(=O)[C@H](C)NC)C(C)(C)C [Example 51, (S)-2-((S)-3,3-Dimethyl-2-((S)-2-(methylamino)propanamido)butanoyl)-7-((3R,5S)-1-((S)-3,3-dimethyl-2-((S)-2-(methylamino)propanamido)butanoyl)-5-(((S)-1-(ethylamino)-1-oxo-3-phenylpropan-2-yl)carbamoyl)pyrrolidin-3-yl)-N-((R)-1,2,3,4-tetrahydronaphthalen-1-yl)-1,2,3,4-tetrahydroisoquinoline-3-carboxamide] | 9.6 | 19.4 | – | –
5 | CN[C@@H](C)C(=O)N[C@H](C(=O)N1Cc2cc(N[C@H]3C[C@@H](C(=O)N[C@@H]4CCCc5ccccc54)N(C(=O)[C@@H](NC(=O)[C@H](C)NC)C(C)(C)C)C3)ccc2C[C@H]1C(=O)N[C@@H]1CCCc2ccccc21)C(C)(C)C [Example 20, (S)-2-((S)-3,3-Dimethyl-2-((S)-2-(methylamino)propanamido)butanoyl)-7-(((3S,5S)-1-((S)-3,3-dimethyl-2-((S)-2-(methylamino)propanamido)butanoyl)-5-(((R)-1,2,3,4-tetrahydronaphthalen-1-yl)carbamoyl)pyrrolidin-3-yl)amino)-N—((R)-1,2,3,4-tetrahydronaphthalen-1-yl)-1,2,3,4-tetrahydroisoquinoline-3-carboxamide] | – | – | 3 | 13
6 | CN[C@@H](C)C(=O)N[C@H](C(=O)N1C[C@@H](c2ccc3c(c2)CN(C(=O)[C@@H](NC(=O)[C@H](C)NC)C(C)(C)C)[C@H](C(=O)N[C@@H]2CCCc4ccccc42)C3)C[C@H]1C(=O)N[C@@H](Cc1ccccc1)C(N)=O)C(C)(C)C [Example 46, (S)-7-((3R,5S)-5-(((S)-1-Amino-1-oxo-3-phenylpropan-2-yl)carbamoyl)-1-((S)-3,3-dimethyl-2-((S)-2-(methylamino)propanamido)butanoyl)pyrrolidin-3-yl)-2-((S)-3,3-dimethyl-2-((S)-2-(methylamino)propanamido)butanoyl)-N—((R)-1,2,3,4-tetrahydronaphthalen-1-yl)-1,2,3,4-tetrahydroisoquinoline-3-carboxamide] | 1.6 | 10.2 | – | –
7 | CN[C@@H](C)C(=O)N[C@H](C(=O)N1C[C@@H](NC(=O)c2ccc3c(c2)CN(C(=O)[C@@H](NC(=O)[C@H](C)NC)C24CC5CC(CC(O)(C5)C2)C4)[C@H](C(=O)NC2CCCc4ccccc42)C3)C[C@H]1C(=O)NC1CCCc2ccccc21)C(C)(C)C (stereo partly drawn) [Example 88, (S)-N^7-((3S,5S)-1-((S)-3,3-dimethyl-2-((S)-2-(methylamino)propanamido)butanoyl)-5-(((R)-1,2,3,4-tetrahydronaphthalen-1-yl)carbamoyl)pyrrolidin-3-yl)-2-((S)-2-((1r,3R,5R,7S)-3-hydroxyadamantan-1-yl)-2-((S)-2-(methylamino)propanamido)acetyl)-N^3-((R)-1,2,3,4-tetrahydronaphthalen-1-yl)-1,2,3,4-tetrahydroisoquinoline-3,7-dicarboxamide] | 2.6 | 9 | – | –
8 | CN[C@@H](C)C(=O)N[C@H](C(=O)N1Cc2cc([C@H]3C[C@@H](C(=O)N[C@@H]4CCCc5ccccc54)N(C(=O)[C@@H](NC(=O)[C@H](C)NC)C(C)(C)C)C3)ccc2C[C@H]1C(=O)N[C@@H](Cc1ccccc1)C(=O)N1CCOCC1)C(C)(C)C [Example 43, (S)-2-((S)-3,3-Dimethyl-2-((S)-2-(methylamino)propanamido)butanoyl)-7-((3R,5S)-1-((S)-3,3-dimethyl-2-((S)-2-(methylamino)propanamido)butanoyl)-5-(((R)-1,2,3,4-tetrahydronaphthalen-1-yl)carbamoyl)pyrrolidin-3-yl)-N—((S)-1-morpholino-1-oxo-3-phenylpropan-2-yl)-1,2,3,4-tetrahydroisoquinoline-3-carboxamide] | 1.3 | 2 | – | –

The next lines start with results.

Row | IC50 (XIAP BIR2-3; [1]) [nM] | IC50 (XIAP BIR3; [2]) [nM] | Compound | IC50 (XIAP BIR2-3) [nM] | IC50 (XIAP BIR3) [nM]
9 | 1.9 | 8.7 | CN[C@@H](C)C(=O)N[C@H](C(=O)N1CC(c2ccc3c(c2)CN(C(=O)[C@@H](NC(=O)[C@H](C)NC)C(C)(C)SCC(=O)O)[C@H](C(=O)NC2CCCc4ccccc42)C3)C[C@H]1C(=O)NC1CCCc2ccccc21)C(C)(C)C (stereo partly drawn) [Example 32, 2-(((R)-4-((S)-7-((3R,5S)-1-((S)-3,3-Dimethyl-2-((S)-2-(methylamino)propanamido)butanoyl)-5-(((R)-1,2,3,4-tetrahydronaphthalen-1-yl)carbamoyl)pyrrolidin-3-yl)-3-(((R)-1,2,3,4-tetrahydronaphthalen-1-yl)carbamoyl)-3,4-dihydroisoquinolin-2(1H)-yl)-2-methyl-3-((S)-2-(methylamino)propanamido)-4-oxobutan-2-yl)thio)acetic acid, 2TFA] | – | –
10 | 3 | 33 | CN[C@@H](C)C(=O)N[C@@H](CC1CCCCC1)C(=O)N1Cc2cc(C(=O)N[C@H]3C[C@@H](C(=O)N[C@@H]4CCCc5ccccc54)N(C(=O)[C@@H](NC(=O)[C@H](C)NC)C(C)(C)C)C3)ccc2C[C@H]1C(=O)N[C@@H]1CCCc2ccccc21 [Example 9, (S)-2-((S)-3-Cyclohexyl-2-((S)-2-(methylamino)propanamido)propanoyl)-N^7-((3S,5S)-1-((S)-3,3-dimethyl-2-((S)-2-(methylamino)propanamido)butanoyl)-5-(((R)-1,2,3,4-tetrahydronaphthalen-1-yl)carbamoyl)pyrrolidin-3-yl)-N^3-((R)-1,2,3,4-tetrahydronaphthalen-1-yl)-1,2,3,4-tetrahydroisoquinoline-3,7-dicarboxamide] | – | –
11 | 5 | 16 | CC[C@H](NC)C(=O)N[C@H](C(=O)N1C[C@@H](NC(=O)c2ccc3c(c2)CN(C(=O)[C@@H](NC(=O)[C@H](C)NC)C(C)(C)C)[C@H](C(=O)N[C@@H]2CCCc4ccccc42)C3)C[C@H]1C(=O)N[C@@H]1CCCc2ccccc21)C(C)(C)C [Example 15, (S)-N^7-((3S,5S)-1-((S)-3,3-Dimethyl-2-((S)-2-(methylamino)butanamido)butanoyl)-5-(((R)-1,2,3,4-tetrahydronaphthalen-1-yl)carbamoyl)pyrrolidin-3-yl)-2-((S)-3,3-dimethyl-2-((S)-2-(methylamino)propanamido)butanoyl)-N^3-((R)-1,2,3,4-tetrahydronaphthalen-1-yl)-1,2,3,4-tetrahydroisoquinoline-3,7-dicarboxamide] | – | –
12 | 2 | 2 | CCC(CC)[C@H](NC(=O)[C@H](C)NC)C(=O)N1C[C@@H](NC(=O)c2ccc3c(c2)CN(C(=O)[C@@H](NC(=O)[C@H](C)NC)C(C)(C)C)[C@H](C(=O)N[C@@H]2CCCc4ccccc42)C3)C[C@H]1C(=O)N[C@@H]1CCCc2ccccc21 [Example 17, (S)-2-((S)-3,3-Dimethyl-2-((S)-2-(methylamino)propanamido)butanoyl)-N^7-((3S,5S)-1-((S)-3-ethyl-2-((S)-2-(methylamino)propanamido)pentanoyl)-5-(((R)-1,2,3,4-tetrahydronaphthalen-1-yl)carbamoyl)pyrrolidin-3-yl)-N^3-((R)-1,2,3,4-tetrahydronaphthalen-1-yl)-1,2,3,4-tetrahydroisoquinoline-3,7-dicarboxamide] | – | –

— patent US8889712B2, “IAP antagonists” (Bristol-Myers Squibb Company, priority 2012, dated 2014)
